The values below are quoted from earlier work in patent US11766411B2, “Use of cannabinoids in the treatment of epilepsy” (GW Research Limited, priority 2014, dated 2023).

Structures are written as SMILES.

The conditions of the data set: Consroe et al., 1977; cited from earlier work.

`CCCCCc1cc(O)c2c(c1)OC(C)(C)[C@@H]1CCC(C)=C[C@@H]21` [THC, Tetrahydrocannabinol]: the effect on convulsions entry is reported as “pro-convulsant”.
